What was measured:
GSK3β = GSK3β (Homo sapiens, UniProt P49841); assay: radioactive […]-ATP in vitro kinase assay, 10-dose IC50, […] ATP; assay type: biochemical
GSK3α = GSK3α (Homo sapiens, UniProt P49840); assay: as above; assay type: biochemical
Sequence of GSK3α (P49840 2-483): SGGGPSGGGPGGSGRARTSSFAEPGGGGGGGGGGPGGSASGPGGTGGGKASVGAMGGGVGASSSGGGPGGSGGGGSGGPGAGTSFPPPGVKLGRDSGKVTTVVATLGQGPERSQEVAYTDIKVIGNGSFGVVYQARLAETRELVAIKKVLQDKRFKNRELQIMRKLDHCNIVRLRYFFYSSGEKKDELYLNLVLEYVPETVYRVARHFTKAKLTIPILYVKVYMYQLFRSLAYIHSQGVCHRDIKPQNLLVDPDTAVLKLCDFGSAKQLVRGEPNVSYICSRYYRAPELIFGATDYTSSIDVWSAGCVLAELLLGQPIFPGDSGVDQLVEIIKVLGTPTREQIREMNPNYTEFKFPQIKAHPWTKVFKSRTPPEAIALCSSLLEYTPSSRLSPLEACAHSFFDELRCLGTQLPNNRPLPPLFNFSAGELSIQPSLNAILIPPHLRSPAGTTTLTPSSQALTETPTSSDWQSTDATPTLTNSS

Sequence of GSK3β (P49841 whole entry): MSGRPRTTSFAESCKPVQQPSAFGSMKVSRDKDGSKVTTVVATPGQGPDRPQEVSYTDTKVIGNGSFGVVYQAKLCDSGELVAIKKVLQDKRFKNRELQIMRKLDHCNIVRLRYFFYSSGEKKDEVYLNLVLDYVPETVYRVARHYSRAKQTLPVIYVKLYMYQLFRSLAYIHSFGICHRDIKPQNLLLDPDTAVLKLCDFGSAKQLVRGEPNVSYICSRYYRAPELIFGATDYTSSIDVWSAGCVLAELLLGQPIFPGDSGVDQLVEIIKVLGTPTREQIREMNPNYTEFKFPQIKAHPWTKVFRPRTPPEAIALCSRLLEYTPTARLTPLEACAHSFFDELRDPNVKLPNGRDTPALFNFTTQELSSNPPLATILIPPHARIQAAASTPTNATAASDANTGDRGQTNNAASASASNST

IC50 (GSK3β): 521 nM
IC50 (GSK3α): 415 nM
Substance: GS87
